The results in this text go back to patent US7960395B2, “5,7-disubstituted thiazolo[4,5-d]pyrimidines for the selective inhibition of chemokine receptors” (AstraZeneca AB, priority 2006, dated 2011).

This assay has as its target T1, hCX3CR1 (Homo sapiens, UniProt P49238).
T1 construct: expressed in transfected cells; host or cells: human embryonic kidney suspension (HEKS) 293 cells stably expressing chimeric G-protein Gαqi5; membranes prepared from them
T1 sequence (P49238 1-355): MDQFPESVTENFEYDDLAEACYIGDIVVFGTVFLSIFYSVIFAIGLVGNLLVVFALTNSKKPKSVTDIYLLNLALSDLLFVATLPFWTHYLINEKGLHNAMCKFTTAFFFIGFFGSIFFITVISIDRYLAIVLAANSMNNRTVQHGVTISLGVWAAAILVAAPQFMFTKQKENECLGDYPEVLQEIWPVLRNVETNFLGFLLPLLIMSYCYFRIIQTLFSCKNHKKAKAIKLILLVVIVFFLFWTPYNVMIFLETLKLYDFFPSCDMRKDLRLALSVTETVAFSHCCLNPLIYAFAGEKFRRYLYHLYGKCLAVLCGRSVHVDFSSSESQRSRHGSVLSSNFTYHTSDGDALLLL
Nature of the assay: in vitro hCX3CR1 binding assay ([125I]-fractalkine competition binding, membranes). The note with it: final compounds. From the text:
Recombinant human fractalkine (hCX3CL1) and recombinant human interleukin-8 (IL-8 or hCXCL8) were purchased from PeproTech Inc., UK. Recombinant [^125I]-fractalkine (human) and [^125I]hIL-8 with the specific activity of 2200 Ci/mmol, was purchased from NEN® Life Science Products, Inc., UK. Fluo-4-AM was purchased from Molecular Probes, US. All other chemicals were of analytical grade.
The complete human CX3CR1 cDNA (GenBank accession number U20350) was extracted from human brain mRNA (Superscript, Life Technologies) and ligated into pCR-Blunt II TOPO vector (InVitrogen). The insert corresponding hCX3CR1 was isolated and further subcloned into pcDNA3.1zeo. Plasmid DNA was prepared using Plasmid Midi Kit (Qiagen). Using Superfect Transfection Reagent (Qiagen) according to the manufacturer's protocol the expression plasmid for hCX3CR1 was then introduced into human embryonic kidney suspension (HEKS) 293 cell line containing a vector for stable expression of a chimeric G-protein Gαqi5. A stable clone was generated utilizing zeocin (500 μg/mL) and hygromycin (100 μg/mL) selection. For further applications the cells were maintained in Dulbecco's modified Eagle's medium/Ham's nutrient mix F12 (DMEM/F12) containing pyridoxine and supplemented with 10% (v/v) fetal bovine serum, 2 mM L-glutamine, 100 U/ml penicillin and […] streptomycin, 250 μg/mL zeocin and 100 μg/mL hygromycin.
Cells are grown at 37° C. and 5% CO2 and harvested at 60-80% confluence in buffer containing 10 mM Tris-HCl pH 7.4, 5 mM EDTA, 0.1 mg/mL bacitracin. The cells are centrifuged at 300×g for 10 min and the pellet is resuspended in harvesting buffer (10 mM Tris-HCl, pH 7.4, 5 mM ethylenediaminetetra-aceticacid (EDTA) and 0.1 mg/mL bacitracin), pooled and homogenised using a Dounce homogeniser. The homogenate is centrifuged in 48000×g for 10 min and resuspended in harvesting buffer using Ultra-Turrax T8. Membrane aliquots are stored at −80° C. Protein concentration was determined in microtiter plates as described by Harrington (1990, Anal. Biochem. 186, 285-287).
Competition binding studies of [^125I]fraktalkine were performed in 2 mL 96-deep-well plates (Beckman, Germany) in a total volume of 1000 μL/well. Each well contained […] [^125I]-fractalkine and membrane equivalent to receptor concentration of 1 μM in assay buffer (50 mM Hepes-KOH, pH 7.4, 10 mM MgCl2, 1 mM EDTA, 0.1% (w/v) gelatine). Ten concentrations (2 points/log unit) of the test compounds were pre-dissolved in DMSO and added to reach a final concentration of 1% (v/v) DMSO. The assay was initiated with the addition of membranes and incubated at 25° C. for 24 h. The reactions were stopped by rapid filtration through Whatman GF/B glass fiber filters pretreated with 0.3% polyethylimine and subsequent washing with ice-cold buffer (10 mM Hepes-KOH pH 7.4, 500 mM NaCl) using a Brandel receptor binding harvester. Scintillation cocktail was added and radioactivity was determined in a Packard 2500TR liquid scintillation counter. (Perkin Elmer, USA)

As usually defined, the Ki is the dissociation constant of the complex between target and ligand, obtained from inhibition or displacement. Read a low Ki as a stronger hold on the target.

On to `CCC[C@H](CO)Nc1nc(S[C@@H](C)c2ccc(Cl)nc2)nc2[nH]c(=O)sc12` [Example 6, 5-{[(1S)-1-(6-Chloropyridin-3-yl)ethyl]thio}-7-{[(1R)-1-(hydroxymethyl)butyl]amino}[1,3]thiazolo[4,5-d]pyrimidin-2(3H)-one], for which the Ki is 0.0214 µM. The same measure for `CC(C)C[C@H](CO)Nc1nc(S[C@@H](C)c2ccncc2F)nc2[nH]c(=O)sc12` [Example 8b, 5-{[(1S)-1-(3-Fluoropyridin-4-yl)ethyl]thio}-7-{[(1R)-1-(hydroxymethyl)-3-methylbutyl]amino}[1,3]thiazolo[4,5-d]pyrimidin-2(3H)-one]: 0.0015 µM; for `CC(C)C[C@H](CO)Nc1nc(S[C@@H](C)c2ncccc2F)nc2[nH]c(=O)sc12` [Example 4, 5-{[(1S)-1-(3-Fluoropyridin-2-yl)ethyl]thio}-7-{[(1R)-1-(hydroxymethyl)-3-methylbutyl]amino}[1,3]thiazolo[4,5-d]pyrimidin-2(3H)-one]: 0.018 µM; for `CC(C)C[C@H](CO)Nc1nc(S[C@@H](C)c2ccc(Cl)cn2)nc2[nH]c(=O)sc12` [Example 1, 5-{[(1S)-1-(5-Chloropyridin-2-yl)ethyl]thio}-7-{[(1R)-1-(hydroxymethyl)-3-methylbutyl]amino}[1,3]thiazolo[4,5-d]pyrimidin-2(3H)-one]: 0.0058 µM. The same measure for `CCC[C@H](CO)N(C)c1nc(S[C@@H](C)c2ccc(Cl)nc2)nc2[nH]c(=O)sc12` [Example 7, 5-{[(1S)-1-(6-Chloropyridin-3-yl)ethyl]thio}-7-[[(1R)-1-(hydroxymethyl)butyl](methyl)amino][1,3]thiazolo[4,5-d]pyrimidin-2(3H)-one]: 0.44 µM; for `CC(C)C[C@H](CO)Nc1nc(S[C@H](C)c2ccncc2F)nc2[nH]c(=O)sc12` [Example 8a, 5-{[(1R)-1-(3-Fluoropyridin-4-yl)ethyl]thio}-7-{[(1R)-1-(hydroxymethyl)-3-methylbutyl]amino}[1,3]thiazolo[4,5-d]pyrimidin-2(3H)-one]: 0.097 µM; for `CC(C)C[C@H](CO)Nc1nc(S[C@@H](C)c2ccc(F)cn2)nc2[nH]c(=O)sc12` [Example 2, 5-{[(1S)-1-(5-Fluoropyridin-2-yl)ethyl]thio}-7-{[(1R)-1-(hydroxymethyl)-3-methylbutyl]amino}[1,3]thiazolo[4,5-d]pyrimidin-2(3H)-one]: 0.02 µM.
